Source: US7928187B2, “Neuropeptide alarin” (Austria Wirtschaftsservice Gesellschaft mit beschrankter …, priority 2005, dated 2011)
Ends that are not written are not given here.

What was measured:
[1] = Body weight after injection into the lateral ventricles; format: in vivo, mice (C57Bl/6); settings: 5 nmol, single injection into lateral ventricles, one hour after injection, adult male mice
Experimental: (§1) Intact adult male mice (C57Bl/6) were treated by a single injection into the lateral ventricles with either artificial cerebrospinal fluid (aCSF), alarin 1-25 (A1), alarin 3-25 (A3). Each treatment was given in an equimolar dose of 5 nmol. Body weight and food weight were measured at 1 hr, 2 hr, and 24 hr post injection. (Shown here as percent change in body weight from baseline).

[2] = Luteinising hormone (LH) level after injection into the lateral ventricles; format: in vivo, mice (C57Bl/6); settings: 5 nmol, single injection into lateral ventricles, blood collected 30 min after injection, adult male mice
Experimental: (§2) Intact adult male mice (C57Bl/6) were treated by a single injection into the lateral ventricles with either artificial cerebrospinal fluid (aCSF), alarin 1-25 (A1), alarin 3-25 (A3). Each treatment was given in an equimolar dose of 5 nmol. Blood was collected 30 min after injection and serum was assayed for LH content. (LH levels shown here in ng/ml).

[3] = Food intake after injection into the lateral ventricles; format: in vivo, mice (C57Bl/6); settings: 5 nmol, single injection into lateral ventricles, one hour after injection, adult male mice
Experimental: as §1, with “grams of food consumed).” for “percent change in body weight from baseline).”

[4] = test system: CNS; test: Functional assays in the CNS with murine alarin peptides; format: in vivo, mice (C57Bl/6); settings: amidated synthetic murine peptides 1-25 and 3-25
Experimental: as §1
as §1, with “grams of food consumed).” for “percent change in body weight from baseline).”
as §2

[5] = biological target: T1, GALR2 receptor (Homo sapiens, UniProt O43603); test: Microphysiometry, extracellular acidification rate, SY5Y cells expressing GALR2; format: cell-based; settings: human neuroblastoma cells SY5Y expressing GALR2; alarin 100 nM
T1 construct: expressed in transfected cells; host or cells: SH-SY5Y human neuroblastoma cells
T1 sequence (O43603 1-387): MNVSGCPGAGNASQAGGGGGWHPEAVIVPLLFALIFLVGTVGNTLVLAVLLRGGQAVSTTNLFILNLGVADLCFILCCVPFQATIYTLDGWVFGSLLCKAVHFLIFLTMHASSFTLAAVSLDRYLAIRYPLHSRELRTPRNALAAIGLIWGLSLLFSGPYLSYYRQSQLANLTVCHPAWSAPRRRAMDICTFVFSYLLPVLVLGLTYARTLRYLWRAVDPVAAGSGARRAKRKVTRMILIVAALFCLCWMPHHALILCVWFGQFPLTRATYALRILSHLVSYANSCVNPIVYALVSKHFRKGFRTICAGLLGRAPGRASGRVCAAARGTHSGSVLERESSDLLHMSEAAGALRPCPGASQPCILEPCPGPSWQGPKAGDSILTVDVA

[6] = test system: galanin receptors; test: Microphysiometry on galanin receptor expressing cells, receptor activation; format: cell-based, human; settings: binding assays and microphysiometry on galanin receptor expressing cells
Experimental: After reaching confluency the cells are harvested and seeded into 3.0 μm pore transwells (Corning Costar) held in 12 well plates one day before the experiment. The cells are allowed to settle down in the culture medium and cultured overnight in serum-free growth-medium. The ECAR of cells is determined by using a Cytosensor Microphysiometer (Molecular Devices). A capsule spacer and a capsule insert are assembled in the transwells, transferred into a sensor chamber and kept in DMEM without sodium bicarbonate throughout the entire experiment at 37° C. The running medium is pumped through each sensor chamber at 50 μl min^−1. A typical pumping cycle of 120 s consists of a flow period of 90 s, followed by a flow-off period of 30 s. During flow-off periods, protons released from the cells accumulate in the sensor chamber, and the rate of proton release is quantified by fitting the sensor data to a straight line with the least-squares fit to the slope of the pH profile. Agonists or other agents are diluted into running medium and perfused through a second fluid path. […]
SH-SY5Y/GalR1 and SH-SY5Y/GalR2 cells (Berger 2004) were seeded into 3.0-μM pore size Transwells (Corning Costar, Cambridge, Mass., USA). The extracellular acidification rate was determined using a cytosensor microphysiometer (Molecular Devices, Ismanning, Germany) as previously reported (Lang et al., 2001).

[7] = test system: galanin receptors; test: Receptor binding assay, displacement of radiolabeled GAL from membrane preparations; settings: binding assays and functional microphysiometry, 50 pM [125I]GAL
Experimental: Membrane preparations and radioligand binding assays were performed according to Berger et al. (Berger et al., 2002). Displacement of radiolabeled GAL binding to membrane preparations (15 μg) was carried out in duplicates in a total volume of 120 μl of binding buffer containing 50 pM [125I]GAL (2,000 Ci/mmol; Amersham Pharmacia Biotech (Little Chalfont, UK) and different concentrations of synthetic murine alarin (1-25-amide) and alarin (3-25-amide).

[8] = test system: CD-1 mouse skin; test: Inflammatory oedema formation (plasma extravasation) in mouse dorsal skin; format: in vivo
Experimental: Experiments involving mice were carried out under the Animals (Scientific Procedures) Act, 1986. Normal female CD-1 mice (22-27 g, 8-12 weeks) were obtained from Charles River, U.K. All mice were maintained on normal diet, with free access to food and water, in a climatically controlled environment. Animals were anaesthetized with urethane (25% w v-1; 2.5 g kg-1 i.p.) and the dorsal skin was shaved. Injection sites were chosen according to a randomized site pattern on the dorsal skin of the anaesthetized mouse. Agents were from Sigma, Poole, U.K., unless specified. Alarin (1-25)-amide (murine) alarin (3-32)-amide (murine) were custom synthesized by NeoMPS Inc. (Strasbourg, France). All peptides were dissolved in distilled water. The stock solutions (10 nM) were stored at −20° C. and further diluted in Tyrode's solution (137 mM NaCl, 2.7 mM KCl, 0.5 mM MgCl2, 0.4 mM NaH2PO4, 11.9 mM NaHCO3, 5.6 mM glucose) just prior use.
Plasma extravasation was used as an index of inflammatory oedema formation and measured as previously described (Cao et al, 1999). Briefly, test agents were diluted in Tyrode's solution and stored on ice. […] The amount of plasma extravasated (μl g-1 tissue) was calculated by comparing the amount of radioactivity in each skin site with that in 100 μl plasma from the same animal.

Substance	body weight [1]	plasma LH levels [2]	food intake [3]	activity in the CNS [4]	change in extracellular acidification [5]	activation of galanin receptors [6]	binding to galanin receptors [7]	inhibition of inflammatory oedema ([8]; co-injection with substance P (300 pmol) and CGRP (10 pmol), intradermal, murine dorsal skin)	potency in inhibition of oedema formation in the skin, alarin 1-25 compared with alarin 3-25 ([8]; amidated synthetic murine peptides)
Alarin 3-25: amidated synthetic murine alarin peptide 3-25 (AHRSSPFPPRPTRAGRETQLLRS-NH2)	significant reduction	significant increase	significant decrease	active	–	–	–	–	–
APAHRSSTFPKWVTKTERGRQPLRS (listed as Homo sapiens) [alarin, novel neuropeptide, splice variant of GALP mRNA]	–	–	–	–	No change	not able to activate these receptors	can be excluded	inhibition of inflammatory oedema	–
Alarin 1-25: amidated synthetic murine alarin peptide 1-25 (APAHRSSPFPPRPTRAGRETQLLRS-NH2)	–	–	–	only alarin 3-25 was active in the CNS	–	–	–	–	more potent
